The text below walks through data of patent US20210094922A1, “Dyes for Analysis of Soluble Protein Aggregates or Misfolded Protein Oligomers” (The Penn State Research Foundation, priority 2018, published 2021).

“And” between values parts separate entries of the source, which are not always exact repeats. Equal values may be shown once.

Series [1] in a line: Photophysical parameters of fluorophores in glycerol. In kind it is physicochemical. The following applies: for B (brightness): calculated using B = Φϵ; for fluorescence in solvents with increasing concentrations of glycerol: glycerol:H2O mixtures; for Φ (quantum yield) / λem / λex / decrease in brightness relative to 3 / diminished quantum yield relative to 3: in glycerol; for λabs: maximum absorbance measured in glycerol; for ϵ (extinction coefficient): measured in glycerol. As to the method:
FP analogues (20 μM) were prepared in glycerol:H2O mixture with increasing glycerol concentrations. In addition, fluorescence intensity in 1,4-dioxane was measured to evaluate their response to polarity. Fluorescence measurement was carried out using a Tecan infinite M1000Pro fluorescence microplate reader at excitation and emission wavelengths as indicated. All readings were normalized against the fluorescence intensity in 100% glycerol as 1. Error bars: standard error (n=3).
FP analogues (20 μM) were prepared in glycerol. Spectra were collected with emission wavelength of 420 nm for 1, 525 nm for 2, 620 nm for 3, 3a and 3b. All measurements were carried out using a Tecan infinite M1000Pro fluorescence microplate reader.
FP analogues (20 μM) were prepared in glycerol. Spectra were collected with excitation wavelength of 370 nm for 1, 455 nm for 2, 530 nm for 3 and 3b, 485 nm for 3a. All measurements were carried out using a Tecan infinite M1000Pro fluorescence microplate reader.
FP analogues (10 μM) were prepared in glycerol. Spectra were collected with 10 mm quartz cuvette. All measurements were carried out using Agilent 300 UV-Vis spectrophotometer.
However, the quantum yield (QY, Φ=0.001 for 1 and Φ=0.027 for 2 in glycerol, Table 2) was much lower than that of a GFP (Φ=0.79).

The target in the next series is SOD1-A4V-Halo (Homo sapiens, UniProt P00441, A5V). Nature of the series: In vitro heat-induced aggregation of SOD1-A4V-Halo conjugates. In kind it is biochemical. From the text:
(B-C) Excitation and emission spectra of 4 (with misfolded oligomers of SOD1-A4V-Halo) and 5 (with insoluble aggregates of SOD1-A4V-Halo).
The inventors installed Halo-tag reactive warhead to 2, resulting in 5.

In another series the target is T1, α-synuclein (Homo sapiens, UniProt P37840).
T1 construct: made in house; host or cells: E. coli (pET29b vector)
Nature of the series: α-synuclein aggregation assay, fluorogenic detection. In kind it is biochemical. To be noted: for stoichiometry of fluorescence intensity with α-syn concentration: 70 vs 140 μM α-syn. As to the method:
Aggregation of α-synuclein was carried out using method described in the Supporting Information. Subsequently, half of reaction mixture was loaded on a 96-well plate to measure fluorescence intensity of 3 (a) or ThT (b) for the reaction mixture (T). The other half was centrifuged at 21,000 g for 30 minutes at 4° C. The supernatant fraction (S) and pellet fraction (P, after resuspension with a volume that was equal to that of the S fraction) were loaded on a 96-well plate to measure fluorescence intensity. 10 μM 3 or ThT was also incubated in buffer as a control. Parameters for fluorescence measurement: 3 (Ex=530 nm/Em=600 nm) and ThT (Ex=440 nm/Em=480 nm). Error bars: standard error (n=3).
(§1) HEK293T cultures were seeded at 25% confluency 24 h prior to transfection in 12-well plate for time dependent fluorescence plate reader analysis or 35 mm glass bottom culture dishes (Poly-d-lysine coated, MatTek Corporation). Cells were grown in DMEM medium supplemented with 10% FBS and penicillin-streptomycin antibiotics until they reached 50-60% confluency. Transfection was performed using X-tremeGene™ 9 DNA transfection reagent (Roche). After 24 h of protein expression and co-translational labeling, medium was replaced with fresh DMEM to diffuse out unbound ligands. After 30 min, media was replaced by fresh DMEM medium containing DMSO vehicle or NaAsO2 (50 μM). Cells were incubated for 18 h, 37° C. in a CO2 incubator. Nuclear stain Hoechst 33342 ([…]) was added to the medium 30 min prior to confocal imaging. Aggregation Assays. α-synuclein: Aggregation solution contained 70 or 140 μM α-synuclein in 20 mM HEPES (pH 7.5) and 100 mM NaCl. 10 μM of 3 or ThT was added to the solution at the beginning of reaction. Previous studies have shown that the kinetics of α-synuclein aggregation is unaffected by the addition of ThT. A volume of 150 μL of the mixture was pipetted into a well of clear-bottom 96-well plate, which was subsequently sealed with Mylar plate sealers. The plate was loaded on a Heidolph vibrating platform shaker and shake at 1,350 rpm at 37° C. At indicated time points, fluorescence reading was obtained using a Tecan M1000Pro fluorescence plate reader. Fluorescence intensity was recorded at Ex=530 nm/Em=600 nm for 3 and Ex=450 nm/Em=480 nm for ThT. Each sample was run in triplicate or quadruplicate. SOD1(V31A): Aggregation was carried out with DPBS buffer containing indicated concentrations of EDTA that is used to chelate the structural metal of SOD1. Aggregation solution contained 42 μM SOD1(V31A) or SOD1(V31A)-Halo and […] of 3 was added to the solution at the beginning of reaction. Reaction was carried out quiescently at indicated temperatures. Fluorescence of 3 was measured at Ex=530 nm/Em=600 nm.

Series [2] in a line: Photostability of 3, absorbance under laser irradiation. It counts as physicochemical. To be noted: 5 mW laser beam of 543 nm; glycerol and protein aggregates. From the text: The inventors also determined photostability of 3 by measuring its absorbance spectra in glycerol and protein aggregates. […] These photochemical properties make 3 suited for fluorescence microscopy.

In another series the target is T2, SOD1(V31A) (Homo sapiens, UniProt P00441, V32A).
T2 construct: linker (TEV site)-Halo-His6 (C, cleaved yes); made in house; host or cells: E. coli BL21 DE3* (pET29b; pBAD σ32-I54N co-expressed)
T2 sequence (P00441 whole entry V32A): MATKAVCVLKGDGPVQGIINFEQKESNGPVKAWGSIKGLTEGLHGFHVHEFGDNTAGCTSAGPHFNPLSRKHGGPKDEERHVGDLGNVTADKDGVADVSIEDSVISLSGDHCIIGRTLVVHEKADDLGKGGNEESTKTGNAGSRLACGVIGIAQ
Nature of the series: Heat-induced SOD1(V31A) aggregation assay, fluorogenic detection. It counts as biochemical. As to the method:
(a) SOD1(V31A) aggregation (42 μM) was induced at 59° C. for 30 min in buffer (50 mM Tris-HCl, pH 7.5, 100 mM NaCl, 83 mM EDTA), in the presence of 3 (21 μM). Reaction mixture was illuminated by UV trans-illuminator before and after centrifugation at 21,000 g for 10 min at 4° C. (b) Fluorescence intensity of SOD1(V31A) aggregates (42 μM) in the presence of varying concentrations of 3. 100 μM of 3 in buffer was used as a control. Parameters for fluorescence measurement: 3 (Ex=530 nm/Em=600 nm). Error bars: standard error (n=3).
as §1

The subject of a further series is HeLa cells. Nature of the series: Stress-induced proteome aggregation in HeLa cells with 17-AAG (AggGlow). In kind it is cell-based. The following applies: 1 μM 17-AAG, 2.5 μM 3. From the text: (§2) Untreated cells remain dark as shown in right panel.
(§3) 3 is used to monitor stress-induced proteome aggregation in HEK293T (human embryonic kidney) cells with a proteasome inhibitor MG132. […] The diffusive fluorescence structure indicates misfolded oligomers and the granular fluorescence structure indicates insoluble aggregates. Similar to this application, 3 was used to monitor stress-induced proteome aggregation in HeLa cells with a heat-shock protein 90 (Hsp90) inhibitor 17-AAG.

The subject of a further series is HEK293T cells. Nature of the series: Stress-induced proteome aggregation in HEK293T cells with MG132 (AggGlow). It counts as cell-based, human. To be noted: 5 μM MG132, 2.5 μM 3.
Excerpt: as §2, §3

The nature of series [3]: Fluorescence of crystals of 3. In kind it is physicochemical. To be noted: crystal. From the text: (a) The crystal of 3 is fluorescent. The crystals were looped out and transferred to a 35 mm glass bottom dish. Images were taken using an inverted Biorad ZOE fluorescent cell imager. […] Reason of the dark image in the bright field is because light of an inverted microscope could not pass through the thick crystal. (b) Crystal structure and packing diagram of 3, with thermal ellipsoids drawn at 50% probability level.
The fluorescence may arise from the tight crystal packing that inhibits TICT of 3 (FIG. 10b).

SOD1-A4V-Halo, sequence (P00441 with tags, fused parts or gaps A5V): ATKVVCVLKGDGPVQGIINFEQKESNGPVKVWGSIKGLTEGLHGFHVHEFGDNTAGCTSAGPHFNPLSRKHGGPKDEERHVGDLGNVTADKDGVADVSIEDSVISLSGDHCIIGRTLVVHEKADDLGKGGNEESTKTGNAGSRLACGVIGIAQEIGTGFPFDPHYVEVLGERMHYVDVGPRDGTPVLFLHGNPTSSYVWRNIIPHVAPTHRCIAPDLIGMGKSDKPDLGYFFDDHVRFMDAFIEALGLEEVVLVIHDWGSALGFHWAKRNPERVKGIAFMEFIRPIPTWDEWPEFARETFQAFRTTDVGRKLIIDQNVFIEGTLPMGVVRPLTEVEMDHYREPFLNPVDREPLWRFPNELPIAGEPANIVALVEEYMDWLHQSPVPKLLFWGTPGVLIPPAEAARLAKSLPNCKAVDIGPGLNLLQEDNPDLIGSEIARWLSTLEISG

Consider `CC1=N/C(=C\c2ccc(O)cc2)C(=O)N1CC(=O)OC(C)(C)C` [Compound 1, (Z)-tert-butyl 2-(4-(4-(hydroxy)benzylidene)-2-methyl-5-oxo-4,5-dihydro-1H-imidazol-1-yl)acetate], for which, in series [1], the “B (brightness)” value was 20.6 M⁻¹ cm⁻¹, the “fluorescence in solvents with increasing concentrations of glycerol” value was “elevated fluorescence”, the “Φ (quantum yield)” value is reported as 0.001 and the λem is 429 nm. Besides, in series [1], the λex came to 370 nm, the λabs was 376 nm and the “ϵ (extinction coefficient)” value was 20,592 M^−1cm^−1.

With `CC1=N/C(=C\c2ccc(N(C)C)cc2)C(=O)N1CC(=O)OC(C)(C)C` [Compound 2, (Z)-tert-butyl 2-(4-(4-(dimethylamino)benzylidene)-2-methyl-5-oxo-4,5-dihydro-1H-imidazol-1-yl)acetate], in series [1], the “B (brightness)” value was 640 M⁻¹ cm⁻¹, the “fluorescence in solvents with increasing concentrations of glycerol” value is recorded as “elevated fluorescence”, the “Φ (quantum yield)” value was 0.027 and the λem stood at 521 nm. Further, in series [1], the λex was found to be 450 nm, the λabs is listed as 452 nm and the “ϵ (extinction coefficient)” value was 23,718 M^−1cm^−1. For the same molecule, the “which POI conformations activate fluorescence” value on SOD1-A4V-Halo was “only activates fluorescence when POI forms insoluble aggregates”.

For `CN(C)c1ccc(/C=C2N=C(/C=C/c3ccc(N(C)C)cc3)N(CC(=O)OC(C)(C)C)C\2=O)cc1` [Compound 3, tert-butyl 2-((Z)-4-(4-(dimethylamino)benzylidene)-2-((E)-4-(dimethylamino)styryl)-5-oxo-4,5-dihydro-1H-imidazol-1-yl)acetate], on α-synuclein, the “detection of soluble oligomers of α-syn” value is reported as “detects soluble oligomers via fluorescence increase” and the “stoichiometry of fluorescence intensity with α-syn concentration” value is “stoichiometric”. Besides, at α-synuclein (70 μM α-syn), the “fluorescence intensity with mature α-syn fibers” value amounted to 0.52. Besides, the “fluorescence intensity with mature α-syn fibers” value at α-synuclein (140 μM α-syn) came to 1.0. Also, the “time at which second phase of fluorescence increase was observed” value on α-synuclein (fiber growth) is given as 20 h. Besides, the “time at which second phase leveled off” value on α-synuclein (fiber maturation) came to 36 h. The “time at which fluorescence reached a plateau” value on α-synuclein (first phase) amounted to 8 h. On α-synuclein (first phase, soluble oligomers), the “time at which fluorescence started to increase” value is on record as 4 h. Moreover, the “drop of absorbance at 530 nm on irradiation” value in series [2] is given as 10%. The “kinetics of fluorescence increase versus protein misfolding (tryptophan fluorescence)” value at SOD1(V31A) is recorded as “identical to that of protein misfolding”. In addition, on SOD1(V31A) (54.5° C.), the “kinetics of fluorescence increase versus turbidity” value is “faster than that of turbidity”. Also, the “fraction in which fluorescence signal is found” value at SOD1(V31A) (after centrifugation) is recorded as “primarily found in the fraction of insoluble protein aggregates”. In addition, at SOD1(V31A) (incubated at 59° C.), the “quantum yield after aggregation of SOD1-V31A” value was 0.22. Moreover, the “quantum yield before aggregation of SOD1-V31A” value on SOD1(V31A) (start value) is 0.02. Further, in series [1], the “B (brightness)” value was 8,786 M^−1cm^−1; the “Φ (quantum yield)” value is 0.22 and 0.221; the λem is on record as 629 nm; the λex came out at 530 nm. In series [1], the λabs is recorded as 530 nm and the “ϵ (extinction coefficient)” value is 39,049 M^−1cm^−1. Moreover, the “fluorescence in stressed cells” value with HeLa cells was “obvious fluorescence pattern was developed in the cytosol”. Besides, the “fluorescence in stressed cells” value with HEK293T cells is “obvious fluorescence pattern was developed in the cytosol”. In addition, in series [3], the fluorescence of crystals entry is “exhibited fluorescence”.

In the case of `CN(C)c1ccc(/C=C/C2=NC(=C\c3ccccc3)/C(=O)N2CC(=O)OC(C)(C)C)cc1` [Compound 3a, tert-butyl 2-((Z)-4-benzylidene-2-((E)-4-(dimethylamino)styryl)-5-oxo-4,5-dihydro-1H-imidazol-1-yl)acetate], in series [1], the “B (brightness)” value is reported as 1,386 M^−1cm^−1, the “decrease in brightness relative to 3” value is about 5 fold, the “diminished quantum yield relative to 3” value is recorded as about 50% and the “Φ (quantum yield)” value amounted to 0.1. Besides, in series [1], the λem turned out to be 621 nm, the λex was determined as 485 nm, the λabs was 500 nm and the “ϵ (extinction coefficient)” value is listed as 13,863 M^−1cm^−1.

For the molecule `CN(C)c1ccc(/C=C2N=C(/C=C/c3ccccc3)N(CC(=O)OC(C)(C)C)C\2=O)cc1` [Compound 3b, tert-butyl 2-((Z)-4-(4-(dimethylamino)benzylidene)-5-oxo-2-((E)-styryl)-4,5-dihydro-1H-imidazol-1-yl)acetate], in series [1], the “B (brightness)” value is 2,089 M^−1cm^−1, the “decrease in brightness relative to 3” value was about 5 fold, the “diminished quantum yield relative to 3” value is listed as “does not affect quantum yield” and the “Φ (quantum yield)” value worked out at 0.232. For the same molecule, in series [1], the λem is listed as 630 nm, the λex is 530 nm, the λabs is reported as 533 nm and the “ϵ (extinction coefficient)” value is on record as 9,004 M^−1cm^−1.

In the case of `Cc1ccc2c(c1)sc(-c1ccc(N(C)C)cc1)[n+]2C.[Cl-]` [Thioflavin T, thioflavin T, reference compound], at α-synuclein, the “detection of soluble oligomers of α-syn” value was “fails to detect soluble oligomers” and the “stoichiometry of fluorescence intensity with α-syn concentration” value was “such stoichiometry was absent”.
